The numbers were not newly measured in publication PMC6709472 (Antimicrobial Agents and Chemotherapy, 2019), which cites them from elsewhere.

The conditions of data set [1]: read-out: 50% effective concentration [EC50]; in vitro activity quoted for VL development.
Data set [2] relates to visceral leishmaniasis (VL). Particulars: 12.5 mg/kg of body weight orally twice a day; hamster models of VL.

For the molecule `O=[N+]([O-])c1cn2c(n1)O[C@@H](COc1ccc(-c3ccc(F)cc3)nc1)CC2` [DNDI-0690], in data set [1], the EC50 was 170 nM. In data set [2], the in vivo efficacy is given as above 99%.
